# According to patent US20150141380A1, “INHIBITORS OF ERK FOR DEVELOPMENTAL DISORDERS OF NEURONAL CONNECTIVITY” (CASE WESTERN RESERVE UNIVERSITY, priority 2010, published 2015):
# Entries after “also recorded” stand apart in the source; their conditions may differ.
# Assays:
# fmr1 knockout mice = experiment: audiogenic seizures in the fmr1 knockout transgenic mouse model of Fragile X syndrome (Example 1); format: in vivo
# Experimental: Male fmr1 knockout mice were bred and tested at 21 days old. All mice were acclimated to the environment, examined, handled, and weighed prior to initiation of the study to assure adequate health and suitability and to minimize non-specific stress associated with manipulation. During the course of the study, 12/12 light/dark cycles were maintained. The room temperature was maintained between 20 and 23° C. with a relative humidity maintained around 50%. Chow and water were provided ad libitum for the duration of the study. Each mouse was randomly assigned across treatment groups. The testing was performed during the animals' light cycle phase. SL327 (Sigma Aldrich, 400 mg/kg) was dissolved in 5% Tween80 and saline and administered i.p. at a dose volume of 10 ml/kg 30 min prior to test. Mice were individually placed in a Plexiglas chamber and allowed to explore for 15 sec following which they were exposed to a 125 dB tone for 2 minutes, followed by 1 minute of no sound, and then a further 2 minute tone. The mice were scored based on their response, latency, and seizure intensity: […]
# FMRI knockout mice = experiment: audiogenic seizure test in FMRI knockout mice (Example 2); format: in vivo
# Experimental: Male FMRI knockout mice were bred at PsychoGenies and tested at 21 days old. All mice were acclimated to the environment, examined, handled, and weighed prior to initiation of the study to assure adequate health and suitability and to minimize non-specific stress associated with manipulation. During the course of the study, 12/12 light/dark cycles were maintained. The room temperature was maintained between 20 and 23° C. with a relative humidity maintained around 50%. Chow and water were provided ad libitum for the duration of the study. Each mouse was randomly assigned across treatment groups. The testing was performed during the animals' light cycle phase
# The following compounds were used.
# Mice were individually placed in a Plexiglas chamber and allowed to explore for 15 sec following which they were exposed to a 125 dB tone for 2 minutes, followed by 1 minute of no sound, and then a further 2 minute tone. The mice were scored based on their response, latency, and seizure intensity:
# Data were analyzed by analysis of variance (ANOVA) followed by post-hoc comparisons with Fisher Tests when appropriate. An effect was considered significant if p<0.05. Data are presented as the mean±standard error of the mean.
# [1] = perillyl alcohol 25 mg/kg i.p., 60 min prior to testing
# [2] = perillyl alcohol 50 mg/kg i.p., 60 min prior to testing
# [3] = MPEP 30 mg/kg i.p., 30 min prior to testing
smiles,measurement,setting,value
"N#C/C(=C(/N)Sc1ccc(N)cc1)c1ccccc1C(F)(F)F [SL327, (2Z)-3-amino-3-[(4-aminophenyl)sulfanyl]-2-[2-(trifluoromethyl)phenyl]prop-2-enenitrile]",mean seizure score compared to vehicle,fmr1 knockout mice; SL327 400 mg/kg i.p.,significantly lower seizure score
same,survival,fmr1 knockout mice; SL327 400 mg/kg i.p.,All mice receiving SL327 survived
same,survival rate following testing,fmr1 knockout mice; SL327 400 mg/kg i.p.,100%
same,audiogenic seizure activity,"fmr1 knockout mice; SL327 400 mg/kg i.p. 30 min prior to test, male fmr1 knockout mice, 21 days old, vs Tween80 vehicle, 400 mg/kg",absence of any audiogenic seizure activity; also recorded: completely inhibits all seizure activity; also recorded: seizure activity was completely prevented
same,latency to seizure onset,"fmr1 knockout mice; SL327 400 mg/kg i.p., 240 sec = maximum total time of audiogenic stimulation, given to animals with no response",> 240 s
same,seizure score,"fmr1 knockout mice; SL327 400 mg/kg i.p., scale 0 (no response) to 5 (respiratory arrest)",0
"C=C(C)[C@@H]1CC=C(CO)CC1 [perillyl alcohol, [(4S)-4-(prop-1-en-2-yl)cyclohex-1-en-1-yl]methanol]",latency to onset of seizure compared to respective vehicle,FMRI knockout mice; [1],significantly delayed the onset; also recorded: increased the latency to seizure
same,latency to respiratory arrest compared to respective vehicle,FMRI knockout mice; [1],significantly delayed the onset; also recorded: significantly prolonged the latency to respiratory arrest
same,mean seizure score compared to vehicle,FMRI knockout mice; [1],attenuated overall seizure score; also recorded: significantly decreased seizure score
same,latency to onset of seizure compared to respective vehicle,FMRI knockout mice; [2],significantly delayed the onset; also recorded: increased the latency to seizure
same,latency to respiratory arrest compared to respective vehicle,FMRI knockout mice; [2],significantly delayed the onset; also recorded: significantly prolonged the latency to respiratory arrest
same,mean seizure score compared to vehicle,FMRI knockout mice; [2],attenuated overall seizure score; also recorded: significantly decreased seizure score
Cc1cccc(C#Cc2ccccc2)n1.Cl [MPEP],respiratory distress during testing,FMRI knockout mice; MPEP 30 mg/kg i.p.,no respiratory distress
same,latency to onset of seizure compared to respective vehicle,FMRI knockout mice; [3],significantly delayed the onset; also recorded: increased the latency to seizure
same,latency to respiratory arrest compared to respective vehicle,FMRI knockout mice; [3],significantly delayed the onset; also recorded: significantly prolonged the latency to respiratory arrest
same,mean seizure score compared to vehicle,FMRI knockout mice; [3],attenuated overall seizure score; also recorded: significantly decreased seizure score
same,latency to respiratory arrest,"FMRI knockout mice; MPEP 30 mg/kg i.p., 240 sec given to animals with no response",240 s
same,clinical signs or toxicity during pretreatment or testing,"FMRI knockout mice; i.p., MPEP HCI 30 mg/kg, perillyl alcohol 25 and 50 mg/kg",No clinical signs or toxicity were observed
